Drawing on patent US9511058B2, “Methods for using carboxamide, sulfonamide and amine compounds” (Rigel Pharmaceuticals, Inc., priority 2010, dated 2016), this text covers EC50 for 26 compounds.

Bounds are passed on as bounds.

The test deals with AMPK. The test can be described thus: AMPK activation, enzyme-linked immunosorbent assay. The format is biochemical. The conditions noted are these: compounds of Table 5 (Table 10).
Broadly, the EC50 is the midpoint of the concentration-response curve. A high value points to a need for much substance. Take `N#Cc1ccc(CN2CCC(NC(=O)c3ccc(OC4CCN(c5ccc(C#N)cc5)CC4)c(F)c3)CC2)cc1` [5-45, N-(1-(4-cyanobenzyl)piperidin-4-yl)-4-(1-(4-cyanophenyl)piperidin-4-yloxy)-3-fluorobenzamide]: the EC50 is less than 1000 nM.

In turn, `O=C(NC1CCN(Cc2ccccc2)CC1)c1cccc(OC2CCN(c3ccc(C(F)(F)F)cc3)CC2)c1` [5-46, N-(1-benzylpiperidin-4-yl)-3-(1-(4-(trifluoromethyl)phenyl)piperidin-4-yloxy)benzamide] returned a 50% effective concentration (EC50) of less than 1000 nM. Then `O=C(NC1CCN(Cc2ccccc2)CC1)c1ccc(OC2CCN(c3ccc(C(F)(F)F)cc3)CC2)cc1Cl` [5-47, N-(1-benzylpiperidin-4-yl)-2-chloro-4-(1-(4-(trifluoromethyl)phenyl)piperidin-4-yloxy)benzamide], with less than 1000 nM; and `N#Cc1ccc(N2CCC(Oc3cccc(C(=O)NC4CCN(Cc5ccccc5)CC4)c3)CC2)cc1` [5-48, N-(1-benzylpiperidin-4-yl)-3-(1-(4-cyanophenyl)piperidin-4-yloxy)benzamide], with less than 1000 nM; and `N#Cc1ccc(N2CCC(Oc3ccc(C(=O)NC4CCN(Cc5ccccc5)CC4)c(Cl)c3)CC2)cc1` [5-49, N-(1-benzylpiperidin-4-yl)-2-chloro-4-(1-(4-cyanophenyl)piperidin-4-yloxy)benzamide], with less than 1000 nM. Then `N#Cc1ccc(CN2CCC(Oc3cccc(C(=O)NC4CCN(Cc5ccccc5)CC4)c3)CC2)cc1` [5-50, N-(1-benzylpiperidin-4-yl)-3-(1-(4-cyanobenzyl)piperidin-4-yloxy)benzamide], with 1000 to 10000 nM. For the compound `N#Cc1ccc(CN2CCC(Oc3ccc(C(=O)NC4CCN(Cc5ccccc5)CC4)c(Cl)c3)CC2)cc1` [5-51, N-(1-benzylpiperidin-4-yl)-2-chloro-4-(1-(4-cyanobenzyl)piperidin-4-yloxy)benzamide], the EC50 was less than 1000 nM.

Compound `O=C(NC1CCN(Cc2ccccc2)CC1)c1cccc(OC2CCN(Cc3ccc(C(F)(F)F)cc3)CC2)c1` [5-52, N-(1-benzylpiperidin-4-yl)-3-(1-(4-(trifluoromethyl)benzyl)piperidin-4-yloxy)benzamide] displayed an EC50 of 1000 to 10000 nM. For the compound `O=C(NC1CCN(Cc2ccccc2)CC1)c1cccc(OC2CCN(c3ccncc3)CC2)c1` [5-53, N-(1-benzylpiperidin-4-yl)-3-(1-(pyridin-4-yl)piperidin-4-yloxy)benzamide], the concentration for a half-maximal effect (EC50) fell in the range of 10000 to 20000 nM. As for `O=C(NC1CCN(Cc2ccccc2)CC1)c1ccc(OC2CCN(Cc3ccc(OC(F)(F)F)cc3)CC2)c(Cl)c1` [5-54, N-(1-benzylpiperidin-4-yl)-3-chloro-4-(1-(4-(trifluoromethoxy)benzyl)piperidin-4-yloxy)benzamide], the figure is less than 1000 nM; as for `O=C(NC1CCN(Cc2ccccc2)CC1)c1ccc(OC2CCN(Cc3ccc(C(F)(F)F)cc3)CC2)c(F)c1` [5-55, N-(1-benzylpiperidin-4-yl)-3-fluoro-4-(1-(4-(trifluoromethyl)benzyl)piperidin-4-yloxy)benzamide], less than 1000 nM. As for `O=C(NC1CCN(Cc2ccccc2)CC1)c1ccc(OC2CCN(Cc3ccc(C(F)(F)F)cc3)CC2)c(Cl)c1` [5-56, N-(1-benzylpiperidin-4-yl)-3-chloro-4-(1-(4-(trifluoromethyl)benzyl)piperidin-4-yloxy)benzamide], the figure is less than 1000 nM.

Consider `O=C(NC1CCN(Cc2ccccc2)CC1)c1ccc(OC2CCN(Cc3ccc(OC(F)(F)F)cc3)CC2)c(F)c1` [5-57, N-(1-benzylpiperidin-4-yl)-3-fluoro-4-(1-(4-(trifluoromethoxy)benzyl)piperidin-4-yloxy)benzamide], for which the EC50 is less than 1000 nM.

`CN1CCC(NC(=O)c2ccc(OC3CCN(Cc4ccc(C(F)(F)F)cc4)CC3)c(Cl)c2)CC1` [5-58, 3-chloro-N-(1-methylpiperidin-4-yl)-4-(1-(4-(trifluoromethyl)benzyl)piperidin-4-yloxy)benzamide] gave an EC50 of 1000 to 10000 nM. Then `O=C(NC1CCN(Cc2ccccc2)CC1)c1ccc(OC2CCN(Cc3cccc(C(F)(F)F)c3)CC2)c(F)c1` [5-59, N-(1-benzylpiperidin-4-yl)-3-fluoro-4-(1-(3-(trifluoromethyl)benzyl)piperidin-4-yloxy)benzamide], with less than 1000 nM.

`O=C(NC1CCN(Cc2ccccc2)CC1)c1ccc(OC2CCN(Cc3cccc(C(F)(F)F)c3)CC2)c(Cl)c1` [5-60, N-(1-benzylpiperidin-4-yl)-3-chloro-4-(1-(3-(trifluoromethyl)benzyl)piperidin-4-yloxy)benzamide] displayed an EC50 of less than 1000 nM. As for `O=C(NC1CCN(Cc2ccccc2)CC1)c1ccc(OC2CCN(Cc3ccc(F)cc3)CC2)c(F)c1` [5-61, N-(1-benzylpiperidin-4-yl)-3-fluoro-4-(1-(4-fluorobenzyl)piperidin-4-yloxy)benzamide], the figure is less than 1000 nM. `O=C(NC1CCN(Cc2ccccc2)CC1)c1cc(Cl)c(OC2CCN(Cc3cccc(C(F)(F)F)c3)CC2)c(Cl)c1` [5-62, N-(1-benzylpiperidin-4-yl)-3,5-dichloro-4-(1-(3-(trifluoromethyl)benzyl)piperidin-4-yloxy)benzamide] showed an EC50 of less than 1000 nM. As for `O=C(NC1CCN(Cc2ccccc2)CC1)c1ccc(OC2CCN(Cc3ccc(OC(F)(F)F)cc3)CC2)cc1` [5-63, N-(1-benzylpiperidin-4-yl)-4-(1-(4-(trifluoromethoxy)benzyl)piperidin-4-yloxy)benzamide], the figure is less than 1000 nM; as for `O=C(NC1CCN(Cc2ccccc2)CC1)c1ccc(OC2CCN(Cc3ccc(Cl)cc3)CC2)c(F)c1` [5-64, N-(1-benzylpiperidin-4-yl)-4-(1-(4-chlorobenzyl)piperidin-4-yloxy)-3-fluorobenzamide], less than 1000 nM. For `O=C(NC1CCN(Cc2ccccc2)CC1)c1ccc(OC2CCN(Cc3ccc(Cl)cc3)CC2)c(Cl)c1` [5-65, N-(1-benzylpiperidin-4-yl)-3-chloro-4-(1-(4-chlorobenzyl)piperidin-4-yloxy)benzamide], the EC50 was less than 1000 nM. Then `O=C(NC1CCN(Cc2ccc(F)cc2)CC1)c1ccc(OC2CCN(Cc3ccc(Cl)cc3)CC2)c(Cl)c1` [5-66, 3-chloro-4-(1-(4-chlorobenzyl)piperidin-4-yloxy)-N-(1-(4-fluorobenzyl)piperidin-4-yl)benzamide], with less than 1000 nM; and `N#Cc1ccc(CN2CCC(Oc3ccc(C(=O)NC4CCN(Cc5ccccc5)CC4)cc3Cl)CC2)cc1` [5-67, N-(1-benzylpiperidin-4-yl)-3-chloro-4-(1-(4-cyanobenzyl)piperidin-4-yloxy)benzamide], with less than 1000 nM. As for `Cc1ccc(CN2CCC(Oc3ccc(C(=O)NC4CCN(Cc5ccc(F)cc5)CC4)cc3Cl)CC2)cc1` [5-68, 3-chloro-N-(1-(4-fluorobenzyl)piperidin-4-yl)-4-(1-(4-methylbenzyl)piperidin-4-yloxy)benzamide], the figure is less than 1000 nM; as for `O=C(NC1CCN(Cc2ccccc2)CC1)c1ccc(OC2CCN(Cc3ccc(F)c(F)c3)CC2)c(F)c1` [5-69, N-(1-benzylpiperidin-4-yl)-4-(1-(3,4-difluorobenzyl)piperidin-4-yloxy)-3-fluorobenzamide], less than 1000 nM.

Compound `N#Cc1ccc(CN2CCC(Oc3ccc(C(=O)NC4CCN(Cc5ccc(Cl)cc5)CC4)cc3F)CC2)cc1` [5-70, N-(1-(4-chlorobenzyl)piperidin-4-yl)-4-(1-(4-cyanobenzyl)piperidin-4-yloxy)-3-fluorobenzamide] showed an EC50 of less than 1000 nM.
